Results on 2 compounds are retold here after patent US6645938B2, “Protection against ischemia and reperfusion injury” (ZymoGenetics, Inc., priority 2000, dated 2003).

Experiment [1] has as its system isolated perfused rat heart. The experiment in a line: Isolated perfused rat heart (Langendorff), 20 min global ischemia and 120 min reperfusion after 24 h pretreatment. The class given is in vivo. The procedure:
Compound-D SEQ ID NO:1, at a dose of 2 mg/kg and solubilized as described above, was administered by tail vein injection into rats weighing between about 350-400 g (number of animals (n)=6). Control rats (n=6) were injected in the same manner with an equal volume of 0.9% NaCl. After 24 h, the hearts from both treated and control animals were excised and perfused in a modified Langendorff perfusion apparatus at 37° C. using oxygenated Krebs-Henseleit buffer as the perfusate, as known to one skilled in the art. Coronary perfusion pressure was maintained at […] by regulating coronary flow. All hearts were paced at […] (300 beats per minute, bpm) except during ischemia. A saline-filled balloon was inserted in the left ventricle to measure developed pressure (DP) and end-diastolic pressure (EDP) in mm Hg. After 15 min equilibration, both groups were subjected to 20 min zero-flow global ischemia, and then were reperfused for 120 min.
Left ventricles were isolated and divided into three segments along their short axis, stained with triphenyltetrazolium chloride, and stored in formalin. Infarct size was measured on digitized images and expressed as a percentage of myocardium. Data were expressed as mean plus or minus standard error of the mean (±SEM) and were analyzed using a paired Student's t-Test. Confidence limits were established at 95%. […]

In experiment [2] the test system is mouse vas deferens. The experiment in a line: Mouse vas deferens (m.v.d.) contractility assay. To be noted: 6000 nM glibenclamide with 1000 nM compound-D. The procedure:
Glibenclamide, a KATP channel blocker, blocked the inhibition of contraction of mouse vas deferens induced by compound-D SEQ ID NO:1. With reference to FIG. 8, the effect of administration of 1000 nM compound-D SEQ ID NO:1 alone (open bar) versus 1000 nM compound-D SEQ ID NO:1 with 6000 nM glibenclamide (hatched bar) on contractility of mouse vas deferens (m.v.d.) (n=6) is shown. Glibenclamide restored m.v.d. contractions which compound-D SEQ ID NO:1 had suppressed. […] (n=2).

On to `O=C1CC[C@@]2(O)[C@H]3Cc4ccc(O)c5c4[C@@]2(CCN3CC2CC2)[C@H]1O5` [naltrexone], for which the “effect of naltrexone on the cardioprotective effects of compound-D” value in experiment [1] (FIG. 7, naltrexone 3 mg/kg combined with compound-D 2.0 mg/kg, 24 h prior to ischemia) is “did not block”. For the same compound, the infarct size entry in experiment [1] (FIG. 7 naltrexone study, pretreated 24 h prior to ischemia, compound-D 2.0 mg/kg, naltrexone 3 mg/kg, control about 27%) is “about 14.5%”.

`COc1ccc(Cl)cc1C(=O)NCCc1ccc(S(=O)(=O)NC(=O)NC2CCCCC2)cc1` [Glibenclamide]: the “effect on inhibition of contraction induced by compound-D” value in experiment [2] is listed as “blocked”.
